Reference: US20250144267A1, “USE OF POLYSACCHARIDE DERIVATIVE” (priority 2022, published 2025)
Entries after “also recorded” stand apart in the source; their conditions may differ.

How the values were obtained:
[1] = system: AB22 cells (mouse mesothelioma cells); experiment: Cell toxicity evaluation (WST assay) of HA-ABA-DOX in AB22; format: cell-based; conditions: DOX 10^−3 to 100 μg/mL, 48 hours
Method: As with the HA-ABA, the cell toxicity of HA-ABA-DOX in AB22 cells (mouse mesothelioma cells) was evaluated by WST assay.
Specifically, AB22 cells (mouse mesothelioma cells) were seeded on 24-well plates and incubated for 24 hours. The medium was then replaced with media having HA-ABA-PMX dissolved at different DOX concentrations (10^−3 μg/mL, 10^−2 μg/mL, 10^−1 μg/mL, 1 μg/mL, 10 μg/mL, 100 μg/mL). Cell viability (%) 48 hours after sample addition was then measured by WST-8 assay (Cell Counting Kit-8, Dojindo).
For purposes of comparison as a control test, cell toxicity was also evaluated using free DOX in place of HA-ABA-DOX.

[2] = system: MeT-5A (human mesothelial cell line); experiment: Cell toxicity evaluation (WST assay) of HA-ABA-PMX in MeT-5A; format: cell-based; conditions: PMX 10^−4 to 10 μg/mL, 48 hours
Method: (§1) As with the HA-ABA, the cell toxicity of HA-ABA-PMX in MeT-5A (human mesothelial cell line) and AB22 cells (mouse mesothelioma cells) was evaluated by WST assay.
(§2) Specifically, MeT-5A (human mesothelial cell line) and AB22 cells (mouse mesothelioma cells) were seeded on 24-well plates and incubated for 24 hours. The medium was then replaced with medium having HA-ABA-PMX dissolved at different PMX concentrations (10^−4 μg/mL, 10^−3 μg/mL, 10^−2 μg/mL, 10^−1 μg/mL, 1 μg/mL, 10 μg/mL). Cell viability (%) 48 hours after sample addition was then measured by WST-8 assay (Cell Counting Kit-8, Dojindo).
(§3) For purposes of comparison as a control test, cell toxicity was also evaluated using free PMX and HA-ADH-PMX in place of HA-ABA-PMX.

[3] = Release test of PMX from HA-ABA-PMX (dialysis tube, PBS); format: physicochemical
Method: The release behavior or PMX from HA-ABA-PMX at different pH values was investigated using a dialysis tube (MWCO: 1 kDa). 1 mL of an aqueous solution of the HA-ABA-PMX (1 mg/mL) obtained in Example II-2 above was placed in a dialysis tube, and shaken at 50 rpm while being incubated with 79 mL of PBS (37° C., pH=5.0, 6.0 7.4). The external solution (sustained release solution) was collected at specific time points, and new PBS was substituted for the entire amount. The drug concentration in the collected external solution (sustained release solution) was measured by UV-vis, and the release rate of the drug PMX was calculated.
For purposes of comparison as control tests, the same release test was also performed with the HA-ABA-PMX solution replaced by an aqueous solution of PMX (0.12 mg/mL) (Free PMX), a mixed solution of HA and PMX obtained by dissolving hyaluronic acid (HA) (1 mg/mL) and PMX (0.12 mg/mL) in water (Free PMX mixed with HA), and an aqueous solution of HA-ADH-PMX having the HA bound irreversibly to the PMX by amide bonds.

[4] = system: AB22 cells (mouse mesothelioma cells); experiment: Cell toxicity evaluation (WST assay) of HA-ABA-PMX in AB22; format: cell-based; conditions: PMX 10^−4 to 10 μg/mL, 48 hours
Method: as §1, §2, §3

[5] = Release test of Van from AL-ABA-Van solution (dialysis membrane, PBS); format: physicochemical; conditions: PBS pH 5.0, 6.0, 7.4, 37°C
Method: The release behavior or Van from an AL-ABA-Van solution at different pH values was investigated using a dialysis membrane (pore size: 50 kDa). Specifically, 1 mL of an AL-ABA-Van solution of the AL-ABA-Van obtained in Example I-7 above dissolved in 3 mg/mL of pure water was injected into a dialysis membrane cut to 9 cm, and both ends of the dialysis membrane were tied with kite thread. This was placed in an 80 mL security container, 79 mL of PBS solution was added, and the mixture was stirred at the maximum rotational speed with a 1 cm stirrer tip in a 37° C. thermostatic tank. 1.0 mL samples were taken from the solution in the security container at specific time points (1, 2, 3, 4, 6, 8, 12, 24, and 48 hours). The sample solutions were subjected to UV-vis spectrum measurement, the drug concentration in the solutions was assayed based on absorbance, and the release rate of the drug Van (vancomycin release %) was calculated. The above measurements were conducted with pH 5.0, pH 6.0 and pH 7.4 PBS solutions (n=4 at each pH). […]

COc1cccc2c1C(=O)c1c(O)c3c(c(O)c1C2=O)C[C@@](O)(C(=O)CO)C[C@@H]3O[C@H]1C[C@H](N)[C@H](O)[C@H](C)O1 [free DOX, Doxorubicin]
Cell growth inhibition effect (cell viability) [1]: dose-dependent cell growth inhibition effects on AB22

benzaldehyde-modified hyaluronic acid-pemetrexed conjugate [HA-ABA-PMX]
Cell growth inhibition effect (cell viability) [2]: dose-dependent cell growth inhibition effects; also recorded: reduced cell viability at lower concentrations than the free PMX and the HA-ADH-PMX | PMX released (cumulative drug release) ([3]; PBS pH 5.0, 37°C, after 24 hours): more than 80% | PMX not released ([3]; PBS pH 7.4, 37°C, after 24 hours): 40% | Cell growth inhibition effect (cell viability) [4]: dose-dependent cell growth inhibition effects; also recorded: reduced cell viability at lower concentrations than the free PMX and the HA-ADH-PMX

CN[C@H](CC(C)C)C(=O)N[C@H]1C(=O)N[C@@H](CC(N)=O)C(=O)N[C@H]2C(=O)N[C@H]3C(=O)N[C@H](C(=O)N[C@H](C(=O)O)c4cc(O)cc(O)c4-c4cc3ccc4O)[C@H](O)c3ccc(c(Cl)c3)Oc3cc2cc(c3O[C@@H]2O[C@H](CO)[C@@H](O)[C@H](O)[C@H]2O[C@H]2C[C@](C)(N)[C@H](O)[C@H](C)O2)Oc2ccc(cc2Cl)[C@H]1O [Van, Vancomycin]
Van release behavior [5]: almost all of the Van was released in the first 10 hours

Nc1nc2[nH]cc(CCc3ccc(C(=O)N[C@@H](CCC(=O)O)C(=O)O)cc3)c2c(=O)[nH]1 [Free PMX, Pemetrexed, reference compound]
Cell growth inhibition effect (cell viability) [2]: dose-dependent cell growth inhibition effects | PMX release behavior ([3]; PBS, 37°C): almost all of the PMX was rapidly released within 2 hours | Cell growth inhibition effect (cell viability) [4]: dose-dependent cell growth inhibition effects
